Assay results taken from patent US9260760B2, “Method for determining complete response to anticancer therapy” (Board of Regents, The University of Texas System, priority 2012, dated 2016).
Values joined by “and” are separate entries in the source; they are usually repeats but may differ in a detail not shown here. Equal entries are not always repeated.

Tests used:
[1] = Study 3: treatment-related toxicity of XCEL (CTCAE version 3.0); conditions: in vivo
Text: The institutional review board approved this study. […] All patients had clinical examinations, laboratory and CT scan every 2-3 months.
The principal investigator and two board-certified radiologists reviewed all the CT scan images. CR was defined according to the RECIST criteria as complete disappearance of measurable or none-measurable disease. Effective CR (eCR) was coined to describe normalization of an anatomical structure (e.g. nodes) that cannot regress completely. Confirmed CR included those patients who had CR by meeting the RECIST criteria or had achieved eCR or pathological CR. Near CR (nCR) were defined as almost complete disappearance (95-99%) of measurable disease on CT scan. Relapse free survival (RFS) was defined as the time from first radiologic CR to first recurrence, progression, or death. […] OS was defined as the time from first radiologic CR to death from any cause. Treatment related toxicity was graded in accordance with the National Cancer Institute Common Toxicity Criteria for Adverse Events, version 3.0.

[2] = earlier study, cited from earlier work
[3] = test system: metastatic colorectal cancer; assay: Study 2: complete responders to XCEL; CR duration, PFS, OS, relapse; format: in vivo, human
Text: This retrospective study was approved by the institutional review board of The University of Texas M. D. Anderson Cancer Center. […] All patients were subjected to routine clinical examinations, laboratory analyses, and computed tomography before receiving XCEL described previously. All patient data were to be independently audited and radiographic images depicting CR were reviewed and agreed upon by two independent radiologists. All 19 patients had pathological confirmation of metastatic cancer ( ). Treatment-related toxicity was graded using the National Institutes of Health's Common Terminology Criteria for Adverse Events, version 3.0. Tumor responses were evaluated using RECIST criteria with complete response defined as complete radiographic disappearance of measurable or evaluable disease and normalization of tumor marker. The death date was ascertained by searching (ssdi.genealogy.rootsweb.com) using social security numbers. The cutoff point for collection of survival was October 2005. Continuous variables were summarized using the mean (±standard deviation) or the median (range). Categorical variables were summarized in frequency tables. Comparisons of important subgroups for these variables were made using the chi-square test or Fisher's exact test, as appropriate. Time to complete response was defined as time to start XCEL therapy to first documented radiographic complete response. Duration of complete response was defined as time to first CR to first recurrence or death. […] Patients were censored at the date of last follow-up if they had not progressed or died. Progression-free and overall survival distributions were summarized using the method of Kaplan and Meier. All response rates, progression-free survival and overall survival were calculated based on the 95% confidence interval (CI). Event chart was created using symbolized events versus time descriptively.

Structure (SMILES): Cc1ccc(-c2cc(C(F)(F)F)nn2-c2ccc(S(N)(=O)=O)cc2)cc1 [XCEL]
- Median mean corpuscular volume (MCV) increase from baseline after XCEL [1]: 11.5
- cardiovascular toxicities [1]: No cardiovascular toxicities were encountered
- incidence of grade ⅔ HFS ([2]; capecitabine 1000 mg/m2/d bid (Lin et al., 2002)): 12.5%
- grade ¾ diarrhea ([2]; versus capecitabine alone (Lin et al., 2002)): reduced
- relapse ([3]; all (eight relapses)): 41%
- carcinoma embryonic antigen level ([3]; all nine patients with elevated CEA): normalization of CEA
- Five-year OS ([3]; all patients): 64%
- Five-year PFS from XCEL ([3]; all patients): 57%
- median OS ([3]; all patients): 54 months
- CR rate ([3]; first-line responders): 90%
- first-line responders who achieved CR ([3]; in vivo): Eight of nine
- median time to CR ([3]; in vivo): 6.5 months
- median time to relapse from CR date ([3]; in vivo): 14 months
- Five-year PFS from XCEL ([3]; none-surgical group / unresected CR patients): 71% and 70%
- Five-year OS ([3]; none-surgical patients / unresected CR patients): 92%
- confirmed pathological CR ([3]; one patient): 5%
- median duration of CR ([3]; resected patients): 13 months
- relapse ([3]; resected patients): 67%
- CR rate ([3]; retroperitoneal nodal metastasis, with radiation): 50%
- patients who discontinued XCEL and remained in CR ([3]; six of 14 patients, median follow-up of 36 months): 43%
- median duration of CR ([3]; unresected patients): not reached
- relapse ([3]; unresected patients): 29%
- sustained CR rate ([3]; unresected patients): 70%
- CR site ([3]; unresected patients, carcinomatosis): 21%
- CR site ([3]; unresected patients, liver): 36%
- CR site ([3]; unresected patients, nodal disease): 43%
